Several values for one entry are separate records, joined by “and”; a condition that tells them apart may be missing. Equal values may be shown once. Inconclusive results and toxic doses are left out. The calls were made as follows: active = survival T/C of 150% or more; inactive = T/C below 125% in these data. Square brackets hold non-standard residues; d marks the D form. Peptide text beside a SMILES is read from it. ξ: configuration not given here. ξLac(3-iPr) = CC(C)CC(O)C(=O)O; NMeV = CN[CH](C(=O)O)C(C)C; NMeA = CN[CH](C)C(=O)O; βAla = NCCC(=O)O
Test system: P388 leukemia ip, CD2F1 mice, survival T/C
Assay: NCI In Vivo Anticancer Drug Screen. Data for tumor model P388 Leukemia (intraperitoneal) in CD2F1 (CDF1) mice
Settings: endpoint: median survival time, higher = longer survival
In short: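 Mice carrying the transplanted tumor received test compound or vehicle. Survival was recorded in each group, and the value is the treated-group measurement divided by that of the vehicle-treated control group.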

[1] = dose: 12.5 mg/kg/injection, schedule: Q01DX009 (ip), vehicle: saline
[2] = dose: 25.0 mg/kg/injection, schedule: Q01DX009 (ip), vehicle: saline
[3] = dose: 50.0 mg/kg/injection, schedule: Q01DX009 (ip), vehicle: saline with Tween-80
[4] = dose: 50.0 mg/kg/injection, schedule: Q01DX009 (ip), vehicle: saline
[5] = dose: 100.0 mg/kg/injection, schedule: Q01DX009 (ip), vehicle: saline
[6] = dose: 200.0 mg/kg/injection, schedule: Q01DX009 (ip), vehicle: saline
[7] = dose: 60.0 mg/kg/injection, schedule: Q01DX005 (ip), vehicle: saline with Tween-80
[8] = dose: 120.0 mg/kg/injection, schedule: Q01DX005 (ip), vehicle: saline with Tween-80
[9] = dose: 240.0 mg/kg/injection, schedule: Q01DX005 (ip), vehicle: saline with Tween-80
[10] = dose: 25.0 mg/kg/injection, schedule: Q01DX005 (ip), vehicle: saline with Tween-80
[11] = dose: 50.0 mg/kg/injection, schedule: Q01DX005 (ip), vehicle: saline with Tween-80
[12] = dose: 100.0 mg/kg/injection, schedule: Q01DX005 (ip), vehicle: saline with Tween-80
[13] = dose: 200.0 mg/kg/injection, schedule: Q01DX005 (ip), vehicle: saline with Tween-80
[14] = dose: 100.0 mg/kg/injection, schedule: Q04DX003 (ip), vehicle: saline with Tween-80
[15] = dose: 200.0 mg/kg/injection, schedule: Q04DX003 (ip), vehicle: saline with Tween-80
[16] = dose: 400.0 mg/kg/injection, schedule: Q04DX003 (ip), vehicle: saline with Tween-80
[17] = dose: 60.0 mg/kg/injection, schedule: Q01DX005 (ip), vehicle: Klucel (hydroxypropylcellulose) (HPC)
[18] = dose: 120.0 mg/kg/injection, schedule: Q01DX005 (ip), vehicle: Klucel (hydroxypropylcellulose) (HPC)
[19] = dose: 240.0 mg/kg/injection, schedule: Q01DX005 (ip), vehicle: Klucel (hydroxypropylcellulose) (HPC)
[20] = dose: 25.0 mg/kg/injection, schedule: Q01DX005 (ip), vehicle: Klucel (hydroxypropylcellulose) (HPC)
[21] = dose: 50.0 mg/kg/injection, schedule: Q01DX005 (ip), vehicle: Klucel (hydroxypropylcellulose) (HPC)
[22] = dose: 100.0 mg/kg/injection, schedule: Q01DX005 (ip), vehicle: Klucel (hydroxypropylcellulose) (HPC)
[23] = dose: 100.0 mg/kg/injection, schedule: Q01DX009 (ip), vehicle: saline with Tween-80
[24] = dose: 200.0 mg/kg/injection, schedule: Q01DX009 (ip), vehicle: saline with Tween-80

Measured: T/C

CCN(CC)CCCC(C)Nc1cc(C)c2nc(C)cc(C)c2c1C (stereo unspecified)
inactive: [1] 98 % of control | [2] 97 % of control | [3] 100 % of control | [4] 90 % of control

Cc1ccc(S(=O)CC(O)CO)cc1 (stereo unspecified)
inactive: [4] 95 % of control | [5] 101 % of control | [6] 108 % of control

C#CC(C)OCC(C)OC(C)=O (stereo unspecified)
inactive: dose: 150.0 mg/kg/injection, schedule: Q01DX009 (ip), vehicle: saline with Tween-80 88 % of control | dose: 225.0 mg/kg/injection, schedule: Q01DX009 (ip), vehicle: saline with Tween-80 88 % of control

CCOC(=O)c1c(=O)[nH]c(=O)n2c1[nH]c1ccccc12
inactive: [7] 93 % of control | [8] 91 % of control | [9] 90 % of control

C[n+]1c(/C=C/c2ccc(N3CCCC3)cc2)sc2ccccc21
inactive: dose: 0.79 mg/kg/injection, schedule: Q01DX009 (ip), vehicle: saline 105 % of control | dose: 1.56 mg/kg/injection, schedule: Q01DX009 (ip), vehicle: saline 95 % of control | dose: 3.12 mg/kg/injection, schedule: Q01DX009 (ip), vehicle: saline 106 % of control and 117 % of control | dose: 6.25 mg/kg/injection, schedule: Q01DX009 (ip), vehicle: saline 108 % of control

CCC(C)C1NC(=O)C2CCCN2C(=O)C(CC(C)C)OC(=O)CCNC(=O)C(C)N(C)C(=O)C(C(C)C)N(C)C1=O (stereo unspecified) (cyclo([ξLac(3-iPr)]PI[NMeV][NMeA][βAla]); configuration not given here)
inactive: dose: 0.63 mg/kg/injection, schedule: Q01DX009 (ip), vehicle: saline 115 % of control | dose: 1.25 mg/kg/injection, schedule: Q01DX009 (ip), vehicle: saline 113 % of control | dose: 2.5 mg/kg/injection, schedule: Q01DX009 (ip), vehicle: saline 117 % of control | dose: 5.0 mg/kg/injection, schedule: Q01DX005 (ip), vehicle: saline with Tween-80 123 % of control | dose: 5.0 mg/kg/injection, schedule: Q01DX009 (ip), vehicle: saline 120 % of control | dose: 10.0 mg/kg/injection, schedule: Q01DX005 (ip), vehicle: saline with Tween-80 119 % of control

O=C1c2ccccc2CCC12OC2c1ccc([N+](=O)[O-])cc1 (stereo unspecified)
inactive: [10] 100 % of control | [11] 106 % of control | [12] 110 % of control | [13] 106 % of control

O=C(C(=S)c1ccccc1)N(Cc1ccccc1)Cc1ccccc1
inactive: [14] 108 % of control | [15] 103 % of control | [16] 103 % of control

COc1ccc(C(C)(C)c2cc3c(cc2OCCO)OCO3)cc1
inactive: [7] 96 % of control | [8] 101 % of control | [9] 105 % of control

COc1ccc(-n2nc3c(ccc4ccccc43)c2NC2CCCCC2)cc1
inactive: [7] 104 % of control | [8] 98 % of control | [9] 102 % of control

FC(F)(F)C1(C(F)(F)F)O[Si]2(OC(C(F)(F)F)(C(F)(F)F)c3ccccc32)c2ccccc21
inactive: dose: 25.0 mg/kg/injection, schedule: Q01DX005 (ip), vehicle: distilled water + Tween-80 + alcohol 97 % of control | [10] 105 % of control | dose: 50.0 mg/kg/injection, schedule: Q01DX005 (ip), vehicle: distilled water + Tween-80 + alcohol 96 % of control | [11] 103 % of control | [12] 105 % of control

O=C1C(C2(O)C(=O)Nc3ccccc32)CCCC1C1(O)C(=O)Nc2ccccc21 (stereo unspecified)
inactive: [17] 90 % of control | [18] 87 % of control | [19] 89 % of control

Nc1nnc(/C=C/c2ccc(Cl)c(Cl)c2)o1
inactive: [7] 95 % of control | [8] 103 % of control | [9] 102 % of control

COC(=O)C1C2c3ccccc3C(C1C(=O)OC)[n+]1ccccc12 (stereo unspecified)
inactive: [20] 94 % of control | [21] 94 % of control | [22] 100 % of control

ClC(Cl)(Cl)CN1CCCCC1Cc1ccccc1 (stereo unspecified)
inactive: dose: 30.0 mg/kg/injection, schedule: Q01DX005 (ip), vehicle: Klucel (hydroxypropylcellulose) (HPC) 101 % of control | [17] 100 % of control

CC(=O)Nc1cc(N)c2c(c1)CCCC2=O
inactive: [17] 97 % of control | [18] 96 % of control | [19] 90 % of control

COc1ccc(CCN2C(=O)CSC2=S)cc1OC
inactive: [23] 100 % of control | [14] 90 % of control | [24] 90 % of control | [15] 90 % of control | [16] 90 % of control

CCC(C)C(N)C(=O)N1CCCC1C(=O)NC(C(=O)O)C(C)CC (stereo unspecified)
inactive: dose: 8.25 mg/kg/injection, schedule: Q01DX005 (ip), vehicle: saline 99 % of control | dose: 16.5 mg/kg/injection, schedule: Q01DX005 (ip), vehicle: saline 102 % of control | dose: 33.0 mg/kg/injection, schedule: Q01DX005 (ip), vehicle: saline 94 % of control | dose: 66.0 mg/kg/injection, schedule: Q01DX005 (ip), vehicle: saline 102 % of control

CCCCCCCCCCCCCCCC[N+](C)(C)CC#N
inactive: [1] 100 % of control | [2] 89 % of control

OCC1OC(n2c(=S)[nH]c3ccccc32)C(O)C1O (stereo unspecified)
inactive: [7] 98 % of control | [8] 98 % of control

CC1C(=O)OC2C1CCC1(C)C=CC(=O)C3(C)OC213 (stereo unspecified)
inactive: [17] 100 % of control | [18] 104 % of control | [19] 105 % of control

COc1ccc2nc(C)cc(N=[N+]=[N-])c2c1
inactive: [7] 100 % of control | [8] 100 % of control | [9] 91 % of control

O=C1SC(Nc2cccc([N+](=O)[O-])c2)/C(=N\N=C2/C(Nc3cccc([N+](=O)[O-])c3)SC(=O)N2Cc2ccccc2)N1Cc1ccccc1 (stereo unspecified)
inactive: [21] 92 % of control | [22] 87 % of control

CC(C)C[C@H]1C(=O)N2CCC[C@H]2[C@]2(O)O[C@](NC(=O)[C@@H]3C=C4c5cccc6[nH]c(Br)c(c56)C[C@H]4N(C)C3)(C(C)C)C(=O)N12
inactive: [3] 100 % of control | [23] 100 % of control | [24] 100 % of control

[Fe].[c-]1[c-][c-][c-](CNc2ncnc3nc[nH]c23)[c-]1.[c-]1[c-][c-][cH-][c-]1
inactive: dose: 12.5 mg/kg/injection, schedule: Q01DX005 (ip), vehicle: Klucel (hydroxypropylcellulose) (HPC) 97 % of control | [20] 100 % of control | [21] 86 % of control | [22] 91 % of control

O=C(N/N=C\c1cccc2ccccc12)C(=O)N/N=C/c1cccc2ccccc12
inactive: dose: 12.5 mg/kg/injection, schedule: Q01DX005 (ip), vehicle: saline with Tween-80 93 % of control | [10] 91 % of control | [11] 94 % of control | [12] 87 % of control | [13] 91 % of control

NNc1nc2ccccc2s1
inactive: dose: 12.5 mg/kg/injection, schedule: Q01DX009 (ip), vehicle: saline with Tween-80 105 % of control | dose: 25.0 mg/kg/injection, schedule: Q01DX009 (ip), vehicle: saline with Tween-80 107 % of control | [3] 98 % of control

Cc1cc(Cl)ccc1NC(=O)NC(C)(C)COC(=O)Nc1cccc(Cl)c1
inactive: dose: 15.0 mg/kg/injection, schedule: Q01DX005 (ip), vehicle: saline with Tween-80 99 % of control | dose: 30.0 mg/kg/injection, schedule: Q01DX005 (ip), vehicle: saline with Tween-80 94 % of control | [7] 90 % of control | [8] 86 % of control

CC(C)C(CC(=O)O)C(=O)O (stereo unspecified)
inactive: [11] 100 % of control | [12] 91 % of control | [13] 104 % of control

C[CH2][Ge]([CH2]C)[CH2]C.C[CH2][Ge]([CH2]C)[CH2]C.[CH3][Ge][CH3]
inactive: [4] 90 % of control | [5] 90 % of control | [6] 92 % of control

C[N+](C)(C)CCOC(=O)CCC(=O)OCC[N+](C)(C)C
inactive: dose: 312.0 micrograms/kg/injection, schedule: Q01DX009 (ip), vehicle: saline 104 % of control | dose: 625.0 micrograms/kg/injection, schedule: Q01DX009 (ip), vehicle: saline 90 % of control | dose: 1250.0 micrograms/kg/injection, schedule: Q01DX009 (ip), vehicle: saline 109 % of control

O=c1[nH]c2cc(Cl)ccc2nc1/C=C(\O)c1ccc(F)cc1
inactive: [7] 89 % of control | [8] 87 % of control | [9] 102 % of control

— PubChem BioAssay AID330 (DTP/NCI, 2004)
